In patent US10450340B2, “3′-deamino-3′-(2″-pyrroline-1″-yl)-5-imino-13-deoxyanthracyclines and methods of preparation” (priority 2017, dated 2019):
Read-outs that look alike come from different tables or passages of the source. Marks after values point to notes of the source that are not given here.

Columns and labels:
MES-SA cells = assay: Antiproliferative activity, doxorubicin sensitive uterine fibrosarcoma; format: cell-based; settings: Homo sapiens, read-out: Drug IC50 Values
Description: (§1) The growth inhibitory potency of 2-pyrrolino-5-imino-13-deoxydoxorubicin IV, 5-imino-13-deoxydoxorubicin III, and doxorubicin I against several cancer cell lines was evaluated using the resazurin fluorescence assay. The growth inhibitory potency was measured as the inhibitory concentration of a compound required to inhibit cell growth by 50% (IC50). The cancer cells were seeded into 96-well plates (0.5-1×10^4 cells/well) with appropriate media, incubated with drug for 48 hours, and then treated with resazurin (final concentration, 0.01%), a non-fluorescent blue dye, for 24 hours. The fluorescence (Ex560 nm/Em590 nm) was recorded using a BioTek SynergyHT multiwell plate fluorimeter. Healthy cells metabolize resazurin to resorufin, a fluorescent pink dye. Thus, fluorescence is a proxy for cell viability and used to determine the effect of cytotoxic agents on cell cultures. […] The activity of 2-pyrrolino-5-imino-13-deoxydoxorubicin IV was also greater than that of doxorubicin I, with IC50 values that were, on average, lower than those of doxorubicin I.
(§2) The compounds were further tested against a uterine fibrosarcoma cell line, MES-SA, sensitive to doxorubicin (compound I), and against a uterine fibrosarcoma cell line MES-SA/MX2 resistant to doxorubicin.

human cancer cell lines = assay: Antiproliferative activity, average over the five cancer cell lines of Table 1; format: cell-based; settings: for times more potent against cancer cells than a normal non-cancer cell line, on average: HADF IC50 / average cancer cell IC50; for IC50: Homo sapiens, read-out: Average Drug IC50 Values
Description: as §1
Even more unexpected and not predicted was that the selectivity of compound IV for cancer cells versus normal cells is shown to be 40 times greater compared to compound I (doxorubicin).

[1] = tested on: HeLa cervical adenocarcinoma cells; assay: Antiproliferative activity, resazurin assay, HeLa; format: cell-based; settings: Homo sapiens, read-out: Drug IC50 Values
Description: as §1

GCT histiocytoma cells = assay: Antiproliferative activity, resazurin assay, GCT; format: cell-based; settings: Homo sapiens, read-out: Drug IC50 Values
Description: as §1

[2] = tested on: RD rhabdomyosarcoma cells; assay: Antiproliferative activity, resazurin assay, RD; format: cell-based; settings: Homo sapiens, Rhabdomyosarcoma cell, read-out: Drug IC50 Values
Description: as §1

[3] = tested on: HADF human adult dermal fibroblasts; assay: Cytotoxicity against normal cell line, resazurin assay; format: cell-based; settings: for IC50: Fibroblast, read-out: Drug IC50 Values
Description: as §1
The compounds were also tested against a normal non-cancer cell line, normal human fibroblasts (HADF).

SW-872 liposarcoma cells = assay: Antiproliferative activity, resazurin assay, SW-872; format: cell-based; settings: Homo sapiens, read-out: Drug IC50 Values
Description: as §1

MES-SA/MX2 cells = assay: Antiproliferative activity, doxorubicin resistant uterine fibrosarcoma; format: cell-based, human; settings: for IC50: Homo sapiens, read-out: Drug IC50 Values; for potency in the resistant fibrosarcoma strain compared to the sensitive strain (times less potent): MES-SA/MX2 versus MES-SA
Description: as §1, §2

[4] = tested on: T47D breast ductal carcinoma cells; assay: Antiproliferative activity, resazurin assay, T47D; format: cell-based; settings: Homo sapiens, read-out: Drug IC50 Values
Description: as §1

HT1080-luc tumors = assay: Primary tumor growth model of sarcoma in SCID mice; format: in vivo; settings: for Averge tumor weight / tumor weight reduced / tumor progression by in vivo bioluminescent imaging: day 20; for Averge tumor weight: SCID mice; for tumor weight reduced: 2.4 mg/kg, relative to PBS; for tumor progression by in vivo bioluminescent imaging: relative to PBS-only treatment
Description: To assess in vivo drug activity against a primary tumor growth model of sarcoma, an experiment was conducted using commercially available human HT1080 fibrosarcoma cells engineered to express luciferase (HT1080-luc; PerkinElmer). The inhibitory potency of Compound III and Compound IV against HT1080-luc was measured in vitro by the methods described in Example 2. […] HT1080-luc tumors were initiated in 6 week old female SCID mice (Harlan) by orthotopic subcutaneous injection of 1×10^6 cells in each flank. After allowing the tumors to establish for 6 days, mice were randomized to one of three treatment groups and treated three times per week by intraperitoneal injection with compound IV or compound III, 2.4 mg/kg in physiological buffered saline (PBS), or vehicle (PBS). […] At day 20 tumor weight was reduced 53% with compound IV while reduced only 36% with compound III at the same given dose. […] This is in contrast to 2-pyrrolinodoxorubicin which can be lethal at its effective dose range.

[5] = tested on: HT1080 fibrosarcoma cells; assay: cells; format: cell-based; settings: for IC50 / IC10: 48 hours; for IC10: concentration inhibiting cell growth by 10%
Description: A fibrosarcoma cell line, HT1080, was used to measure the IC50's and IC10's (the inhibitory concentration of a compound required to inhibit cell growth by 10%) of Compound IV and Compound III, as described in Example 2. An IC50 concentration represents a therapeutic amount of compound. […] The cells were passaged and seeded at 5,000 cells/well on 96-well plates and the plates were incubated for 24 hours. After incubation, the media was changed and the IC50's and IC10's of compound IV and compound III were measured after 48 hours of incubation. Then, the IC50's of compound IV in the presence of compound III at an IC10 concentration and of compound III in the presence of compound IV at an IC10 concentration were measured after 48 hours of incubation. After the incubations, […] of 0.1% AlamarBlue in 1×PBS was added to each well. The plates were then incubated for a final 24 h. The plates were read on a microplate reader with an ex/em of 485/528.

advanced tumors = settings: patients with advanced tumors; cited from earlier work
[6] = tested on: HT1080-luc fibrosarcoma cells; assay: Inhibitory potency against HT1080-luc in vitro; format: cell-based; settings: Homo sapiens, read-out: IC50±SEM
Description: The growth inhibitory potency of 2-pyrrolino-5-imino-13-deoxydoxorubicin IV, 5-imino-13-deoxydoxorubicin III, and doxorubicin I against several cancer cell lines was evaluated using the resazurin fluorescence assay. The growth inhibitory potency was measured as the inhibitory concentration of a compound required to inhibit cell growth by 50% (IC50). The cancer cells were seeded into 96-well plates (0.5-1×10^4 cells/well) with appropriate media, incubated with drug for 48 hours, and then treated with resazurin (final concentration, 0.01%), a non-fluorescent blue dye, for 24 hours. The fluorescence (Ex560 nm/Em590 nm) was recorded using a BioTek SynergyHT multiwell plate fluorimeter. Healthy cells metabolize resazurin to resorufin, a fluorescent pink dye. Thus, fluorescence is a proxy for cell viability and used to determine the effect of cytotoxic agents on cell cultures. […]
To assess in vivo drug activity against a primary tumor growth model of sarcoma, an experiment was conducted using commercially available human HT1080 fibrosarcoma cells engineered to express luciferase (HT1080-luc; PerkinElmer). The inhibitory potency of Compound III and Compound IV against HT1080-luc was measured in vitro by the methods described in Example 2. […]

[7] = tested on: cancer cells versus normal cells; settings: as reported; cited from earlier work
topoisomerase II = settings: compared with doxorubicin; Stepankova et al.; cited from earlier work
[8] = literature; cited from earlier work
[9] = MES-SA uterine fibrosarcoma (sensitive), mean ±SEM of 3 assays
[10] = average of SW-872, RD, GCT, HeLa, T47D
[11] = HeLa cervical adenocarcinoma, 48 hours drug, resazurin, mean ±SEM of 3 assays
[12] = GCT histiocytoma, 48 hours drug, resazurin, mean ±SEM of 3 assays
[13] = RD rhabdomyosarcoma, 48 hours drug, resazurin, mean ±SEM of 3 assays
[14] = HADF normal human adult dermal fibroblasts, resazurin
[15] = SW872, SW-872 liposarcoma, 48 hours drug, resazurin, mean ±SEM of 3 assays
[16] = MES-SA/MX2 uterine fibrosarcoma (resistant), mean ±SEM of 3 assays
[17] = T47D breast ductal carcinoma, 48 hours drug, resazurin, mean ±SEM of 3 assays
[18] = 2.4 mg/kg intraperitoneal three times per week

SMILES | IC50 (MES-SA cells; [9]) [µM] | times more potent against cancer cells than a normal non-cancer cell line, on average (human cancer cell lines) [times] | IC50 (human cancer cell lines; [10]) [µM] | IC50 [1, 11] [µM] | IC50 (GCT histiocytoma cells; [12]) [µM] | IC50 [2, 13] [µM] | IC50 [3, 14] [µM] | IC50 (SW-872 liposarcoma cells; [15]) [µM] | IC50 (MES-SA/MX2 cells; [16]) [µM] | potency in the resistant fibrosarcoma strain compared to the sensitive strain (times less potent) (MES-SA/MX2 cells) | IC50 [4, 17] [µM] | Averge tumor weight (HT1080-luc tumors; [18]) | tumor weight reduced (HT1080-luc tumors) [%] | tumor progression by in vivo bioluminescent imaging (HT1080-luc tumors) | IC10 ([5]; compound alone, HT1080) [µM] | also measured
COc1cccc2c1C(=O)c1c(O)c3c(c(O)c1C2=O)C[C@@](O)(C(=O)CO)C[C@@H]3O[C@H]1C[C@H](N)[C@H](O)[C@H](C)O1 [Compound I, doxorubicin] | 0.55 ± 0.08 | 2 | 9.06 | 0.605 ± 0.095 | 0.279 ± 0.036 | 0.43 ± 0.15 | 18.9 | 33.7 ± 7.5 | 7.8 ± 1.8 | 14 times | 10.3 ± 7.8 |  |  |  |  | 
COc1cccc2c1C(=N)c1c(O)c3c(c(O)c1C2=O)C[C@@](O)(CCO)C[C@@H]3OC1CC(N)C(O)C(C)O1 (stereo partly drawn) [Compound III, 5-imino-13-deoxydoxorubicin] | 10.5 ± 1 | 5.8 | 10.1 | 9.82 ± 0.93 | 3.37 ± 0.35 | 11.9 ± 3.99 | 58.9 | 7.38 ± 0.45 | 90 |  | 18 | 1.40 g | 36 | not significantly reduced | 5.34 | times more potent in the presence of a nontherapeutic amount (IC10) of the other compound [5]: 35 times; IC50 ([5]; Homo sapiens, HT-1080, 48 h, HT1080, read-out: IC50 of compound III in the presence of an IC10 of compound IV): 1.78 µM; IC50 ([5]; Homo sapiens, HT-1080, 48 h, compound alone, HT1080, read-out: IC50): 63.4 µM; IC50 ([5]; compound alone, HT1080, read-out: IC50): 63.7 µM; anticancer activity in Phase I clinical trial (advanced tumors): anticancer activity in a variety of carcinomas, sarcomas, and bladder cancer; tolerability in Phase I clinical trial (advanced tumors): well tolerated with relatively mild toxicity for an anthracycline; IC50 ([6]; HT1080-luc in vitro, methods of Example 2): 10 ± 6.1 µM
COc1cccc2c1C(=N)c1c(O)c3c(c(O)c1C2=O)C[C@@](O)(CCO)C[C@@H]3OC1CC(N2C=CCC2)C(O)C(C)O1 (stereo partly drawn) [Compound IV, 2-pyrrolino-5-imino-13-deoxydoxorubicin] |  | 81 |  |  |  |  |  |  |  | about equal in potency |  | 1.03* g | 53 | reduced significantly statistically | 0.84 | IC50 (MES-SA cells; MES-SA): 0.76 ± 0.16 µM; IC50 (human cancer cell lines): 0.49 µM; times more potent than compound I for inhibiting cell growth of cancer cells, on average (human cancer cell lines; ratio of average IC50 values): 18 times; times more potent than compound III for inhibiting cell growth of cancer cells, on average (human cancer cell lines; ratio of average IC50 values): 20 times; IC50 ([1]; HeLa, 48 h): 0.467 ± 0.104 µM; IC50 (GCT histiocytoma cells; 48 h): 0.175 ± 0.015 µM; tolerability in mice (HT1080-luc tumors; [18]): well tolerated by the mice with no deaths and no overt signs of toxicity; IC50 ([2]; 48 h): 0.44 ± 0.13 µM; times more potent in the presence of a nontherapeutic amount (IC10) of the other compound ([5]; HT1080, IC50 alone / IC50 in combination): 12 times; IC50 ([5]; Homo sapiens, HT-1080, 48 h, compound alone, HT1080): 12.5 µM; IC50 ([5]; Homo sapiens, HT-1080, 48 h, read-out: IC50 of compound IV in the presence of an IC10 of compound III, HT1080): 1 µM; IC50 ([5]; read-out: IC50 of compound IV in the presence of an IC10 of compound III, HT1080): 1.01 µM; cytotoxicity against HADF (normal) cells relative to doxorubicin I ([3]; 39.75/18.9): half as cytotoxic; IC50 ([3]; Homo sapiens): 39.8 µM; IC50 (SW-872 liposarcoma cells; SW872, 48 h): 0.57 ± 0.23 µM; IC50 [6]: 3.51 ± 1.79 µM; IC50 (MES-SA/MX2 cells; MES-SA): 0.66 ± 0.003 µM; times more potent than compound I in an anthracycline resistant cell line (MES-SA/MX2 cells; MES-SA/MX2): 12 times; IC50 ([4]; T47D, 48 h): 0.817 ± 0.561 µM
COc1cccc2c1C(=O)c1c(O)c3c(c(O)c1C2=O)C[C@@](O)(C(=O)CO)C[C@@H]3OC1CC(N2C=CCC2)C(O)C(C)O1 (stereo partly drawn) [compound II, 3′-deamino-3′-(2″-pyrroline-1″-yl)doxorubicin] |  |  |  |  |  |  |  |  |  |  |  |  |  |  |  | selectivity for cancer cells versus normal cells [7]: little or no selectivity; ability of DNA modifications to inhibit catalytic activity of topoisomerase II (topoisomerase II): does not differ significantly from that of doxorubicin; toxicity relative to doses required for an anticancer effect [8]: toxic or lethal at or below doses that are required for an anticancer effect
